Patent publication US20250144066A1, “Prevention and Treatment of Parasitic Infections” (priority 2017, published 2025)
In brackets after ≈: the same amount, converted by molar mass. Where two headings read alike, the source gives them in different places.

Assays:
Zika Virus [1] = assay: Zika virus cytopathic effect (CPE) inhibition, Vero 76, primary screen (Zika-089); assay type: cell-based; details: for EC50: Zika virus, MR766, Vero 76, primary
Zika Virus [2] = assay: Zika virus CPE inhibition (Neutral Red), Vero 76, secondary (Zika-094); assay type: cell-based; details: Neutral Red (Cytopathic effect), MR766
Zika Virus [3] = assay: Zika virus yield reduction (VYR), Vero 76, secondary (Zika-094); assay type: cell-based; details: Visual (Virus yield reduction), MR766
Zika Virus [4] = assay: Zika virus CPE inhibition (Neutral Red), Huh7, secondary (Zika-094); assay type: cell-based
Zika Virus [5] = assay: Zika virus yield reduction (VYR), Huh7, secondary (Zika-094); assay type: cell-based; details: Huh-7, Visual (Virus yield reduction), MR766
Zika Virus [6] = assay: Zika prevention, CPE inhibition (Neutral Red), Huh7, 4 h pre-incubation (Zika-138); assay type: cell-based; details: Zika virus, Huh-7, Neutral Red (Cytopathic effect), pre-incubated 4 hours prior to infection, read-out: EC50
Zika Virus [7] = assay: Zika prevention, virus yield reduction (VYR), Huh7, 4 h pre-incubation (Zika-138); assay type: cell-based; details: for Virus Titer: 4 hr pre-incubation, Huh7 cells
Procedure: (§1) An experiment was carried out as specified in Example 8. In a Zika Prevention Trial, MPA was pre-incubated with human cells 4 hours or 24 hours before Zika virus infection.

Zika Virus [8] = assay: Zika prevention, CPE inhibition (Neutral Red), Huh7, 24 h pre-incubation (Zika-138); assay type: cell-based; details: Zika virus, Huh-7, Neutral Red (Cytopathic effect), pre-incubated 24 hours prior to infection, read-out: EC50
Zika Virus [9] = assay: Zika prevention, virus yield reduction (VYR), Huh7, 24 h pre-incubation (Zika-138); assay type: cell-based; details: for Virus Titer: 24 hr pre-incubation, Huh7 cells
Procedure: as §1

Zika Virus [10] = assay: Zika prevention, CPE inhibition (Neutral Red), Vero 76, 4 h pre-incubation (Zika-138); assay type: cell-based; details: Zika virus, Neutral Red (Cytopathic effect), pre-incubated 4 hours prior to infection, read-out: EC50
Zika Virus [11] = assay: Zika prevention, virus yield reduction (VYR), Vero 76, 4 h pre-incubation (Zika-138); assay type: cell-based; details: Zika virus, Visual (Virus yield reduction), pre-incubated 4 hours prior to infection, read-out: EC90
Zika Virus [12] = assay: Zika prevention, virus yield reduction (VYR), Vero 76, 24 h pre-incubation (Zika-138); assay type: cell-based; details: Zika virus, Visual (Virus yield reduction), pre-incubated 24 hours prior to infection, read-out: EC90
[13] = tested on: human norovirus (NV, GT1); assay: Human norovirus replicon, RNA Hybridization, HG23, primary (16-21); assay type: cell-based
Text: (§2) Secondary testing was done with human norovirus.

[14] = RNA Hybridization toxicity in HG23 cells (16-21); assay type: cell-based; details: human, HG23 cells
Text: as §2

[15] = tested on: human norovirus (NV, GT1); assay: Human norovirus replicon, qPCR, HG23, secondary (17-14); assay type: cell-based; details: Norovirus
Text: as §2

[16] = NR toxicity in HG23 cells (17-14); assay type: cell-based; details: human, HG23 cells, NR (Tox)
Text: as §2

Adenovirus5 Adenoid75 = assay: Adenovirus 5 CPE inhibition, A549 (ADV-0172); assay type: cell-based; details: for EC50: Human mastadenovirus C, A549, read-out: EC50
[17] = Toxicity in A549 cells (ADV-0172); assay type: cell-based; details: human, A549 cells
Powassan virus LB = assay: microbe, parasite or virus in culture; assay type: cell-based; details: for EC50: Powassan virus, BHK
[18] = tested on: Rift Valley fever virus MP-12; assay: microbe, parasite or virus in culture; assay type: cell-based; details: for EC50: Rift Valley fever virus, Vero76
MDCK = details: Neutral Red (Toxicity)
Vero76 = details: African green monkey
in vitro [19] = details: dog
in vitro [20] = details: African green monkey
in vitro [21] = details: African green monkey; remark: listed apart in the source
[22] = NR toxicity in RAW264.7 cells (17-09); details: mouse
[23] = Toxicity in Vero 76 cells, primary screen (Zika-089); details: monkey
[24] = Neutral Red toxicity in Huh7 cells, secondary (Zika-094); details: human
[25] = Neutral Red toxicity in Vero 76 cells, secondary (Zika-094); details: monkey
[26] = Neutral Red toxicity in Huh7 cells, 4 h pre-incubation (Zika-138); details: human
[27] = Neutral Red toxicity in Huh7 cells, 24 h pre-incubation (Zika-138); details: human
[28] = Neutral Red toxicity in Vero 76 cells, 4 h pre-incubation (Zika-138); details: monkey
[29] = Neutral Red toxicity in Vero 76 cells, 24 h pre-incubation (Zika-138); details: monkey
[30] = Vero 76, Neutral Red (Cytopathic effect)
[31] = Vero 76, Visual (Cytopathic effect)

COc1c(C)c2c(c(O)c1C/C=C(\C)CCC(=O)O)C(=O)OC2 [EP1601, 6-(4-hydroxy-6-methoxy-7-methyl-3-oxo-1,3-dihydroisobenzofuran-5-yl)-4-methyl-hex-4-enoic acid]
EC50 (Zika Virus [1]; [30]): 0.15 mg/L (≈ 0.468 µM)
EC50 (Zika Virus [1]; [31]): < 0.1 mg/L
activity against Zika Virus (Zika Virus [1]; three in vitro tests (Zika-A, Zika-B, Zika-C)): active
EC50 (Zika Virus [2]): 0.14 mg/L (≈ 0.437 µM)
EC90 (Zika Virus [3]): 0.3 mg/L (≈ 0.937 µM)
EC50 (Zika Virus [4]; Huh-7, Neutral Red (Cytopathic effect), MR766, Huh7, secondary): 0.14 mg/L (≈ 0.437 µM)
EC50 (Zika Virus [4]; Huh-7, Zika virus, 'one of our tests' (test not specified), read-out: EC50): 0.049 mg/L (≈ 0.153 µM)
EC90 (Zika Virus [5]): 0.088 mg/L (≈ 0.275 µM)
EC50 (Zika Virus [6]): 0.17 mg/L (≈ 0.531 µM)
Virus Titer (Zika Virus [7]; MPA 0.1 μg/ml): 4.5 Log10 CCID50/0.1 ml
Virus Titer (Zika Virus [7]; MPA 1 μg/ml): 4.5 Log10 CCID50/0.1 ml
Virus Titer (Zika Virus [7]; MPA 10 μg/ml): 4.5 Log10 CCID50/0.1 ml
Virus Titer (Zika Virus [7]; MPA 32 μg/ml): 4.5 Log10 CCID50/0.1 ml
Virus Titer (Zika Virus [7]; MPA 100 μg/ml): 0.67 Log10 CCID50/0.1 ml
EC90 (Zika Virus [7]; Zika virus, Huh-7, Visual (Virus yield reduction), Huh7, pre-incubated 4 hours prior to infection, read-out: EC90): 42.7 mg/L (≈ 133 µM)
mitigation of infection by Zika virus (Zika Virus [7]; given 4 hours before the infection): strongly mitigated the infection
EC50 (Zika Virus [8]): 0.55 mg/L (≈ 1.72 µM)
virus in VYR assay (Zika Virus [9]; Huh7 cells pre-incubated with drug for 24 hrs): reduced virus to zero
Virus Titer (Zika Virus [9]; MPA 0.1 μg/ml): 4.5 Log10 CCID50/0.1 ml
Virus Titer (Zika Virus [9]; MPA 1 μg/ml): 3.5 Log10 CCID50/0.1 ml
Virus Titer (Zika Virus [9]; MPA 10 μg/ml): <.67 Log10 CCID50/0.1 ml
Virus Titer (Zika Virus [9]; MPA 32 μg/ml): <.67 Log10 CCID50/0.1 ml
Virus Titer (Zika Virus [9]; MPA 100 μg/ml): <.67 Log10 CCID50/0.1 ml
EC90 (Zika Virus [9]; Zika virus, Huh-7, Visual (Virus yield reduction), Huh7, pre-incubated 24 hours prior to infection, read-out: EC90): 0.78 mg/L (≈ 2.43 µM)
prevention of infection by Zika virus (Zika Virus [9]; given 24 hours before infection): completely prevent infection
EC50 (Zika Virus [10]): > 100 mg/L
EC90 (Zika Virus [11]): 17.8 mg/L (≈ 55.6 µM)
EC90 (Zika Virus [12]): 10 mg/L (≈ 31.2 µM)
EC50 ([13]; Norovirus, GT1, HG23): 0.151 µM
EC90 ([13]; Norovirus, GT1, HG23): 1.3 µM
activity against Norovirus ([13]; three in vitro tests (human and mouse norovirus)): active
CC50 [14]: > 100 µM
EC50 [15]: 0.219 µM
EC90 [15]: 1.1 µM
CC50 [16]: 64 µM
activity against Adenovirus 5 (Adenovirus5 Adenoid75): active
EC50 (Adenovirus5 Adenoid75; A549, Neutral Red (Cytopathic effect)): 0.31 mg/L (≈ 0.968 µM)
EC50 (Adenovirus5 Adenoid75; A549, Visual (Cytopathic effect)): 0.32 mg/L (≈ 0.999 µM)
CC50 ([17]; Neutral Red (Toxicity)): 12 mg/L (≈ 37.5 µM)
CC50 ([17]; Visual (Toxicity)): 15 mg/L (≈ 46.8 µM)
activity against Powassan (Powassan virus LB): active
EC50 (Powassan virus LB; Neutral Red (Cytopathic effect)): 0.36 mg/L (≈ 1.12 µM)
EC50 (Powassan virus LB; Visual (Cytopathic effect)): 0.32 mg/L (≈ 0.999 µM)
activity against Rift Valley [18]: active
EC50 [18, 30]: 4 mg/L (≈ 12.5 µM)
EC50 [18, 31]: 3.1 mg/L (≈ 9.68 µM)
CC50 (MDCK): > 100 µM
CC50 (Vero76): 17 mg/L (≈ 53.1 µM)
CC50 (in vitro [19]): > 100 µM
CC50 (in vitro [20]): > 100 mg/L
CC50 (in vitro [21]): 26 mg/L (≈ 81.2 µM)
CC50 [22]: 32 µM
CC50 ([23]; CC50, Neutral Red (Toxicity)): 14 mg/L (≈ 43.7 µM)
CC50 ([23]; CC50, Visual (Toxicity)): > 100 mg/L
CC50 [24]: 1.6 mg/L (≈ 4.99 µM)
CC50 [25]: 2.3 mg/L (≈ 7.18 µM)
CC50 [26]: > 100 mg/L
CC50 [27]: 1.4 mg/L (≈ 4.37 µM)
CC50 [28]: > 100 mg/L
CC50 [29]: 37 mg/L (≈ 116 µM)
